Results on six sequences are retold here after patent US20070037230A1 (priority 2005, published 2007).

Some test systems named below: Bacillus subtilis; Bacillus licheniformis; Bacillus thuringiensis; Bacillus cereus; Bacillus megaterium.
Assay type in all cases: binding
Test [1] deals with biotinylated Bacillus anthracis spores.
Test [2] concerns Bacillus anthracis spores.
Test [3] relates to Bacillus anthracis spores. This is another data set of the same source.

Take ETRVPHGA: the “bound to Bacillus anthracis fold better than to Bacillus subtilis” value with Bacillus subtilis amounted to 24 fold. Besides, in test [1], the “binding in the ELISA” value was “high binding”. Also, the “bound to Bacillus anthracis fold better than to Bacillus licheniformis” value with Bacillus licheniformis was found to be 12 fold. In the test on Bacillus thuringiensis, the “bound to Bacillus anthracis fold better than to Bacillus thuringiensis” value was found to be 2.2 fold. Also, the “bound to Bacillus anthracis fold better than to Bacillus cereus” value in the test on Bacillus cereus turned out to be 2.4 fold. Besides, in the test on Bacillus megaterium, the “bound to Bacillus anthracis fold better than to Bacillus megaterium” value is on record as 24 fold.

As for VTRNTSAS, the “binding in the ELISA” value in test [1] is recorded as “high binding”. Further, the “binding of phage to spores in ELISA revealed with monoclonal antibody BD8” value in test [2] is on record as “specific binding”. Further, the “binding in the phage-capture assay (percentage recovery, eluted to input phage)” value in test [3] is reported as “high binding”.

As to DARGTTHM, the “bound to Bacillus anthracis fold better than to Bacillus subtilis” value with Bacillus subtilis was 25 fold. In addition, the “binding in the ELISA” value in test [1] is listed as “high binding”. For the same sequence, the “binding in the phage-capture assay (percentage recovery, eluted to input phage)” value in test [3] is listed as “high binding”. Also, in the test on Bacillus licheniformis, the “bound to Bacillus anthracis fold better than to Bacillus licheniformis” value was 50 fold. The “bound to Bacillus anthracis fold better than to Bacillus thuringiensis” value in the test on Bacillus thuringiensis was 2.1 fold. In addition, the “bound to Bacillus anthracis fold better than to Bacillus cereus” value in the test with Bacillus cereus is listed as 3.7 fold. The “bound to Bacillus anthracis fold better than to Bacillus megaterium” value in the test on Bacillus megaterium came to 75 fold.

Turning to EPRLSPHS, in the test with Bacillus subtilis, the “bound to Bacillus anthracis fold better than to Bacillus subtilis” value turned out to be 39 fold. In test [1], the “binding in the ELISA” value is listed as “high binding”. The “binding in the phage-capture assay (percentage recovery, eluted to input phage)” value in test [3] is “high binding”. For the same sequence, the “bound to Bacillus anthracis fold better than to Bacillus licheniformis” value in the test on Bacillus licheniformis is listed as 70 fold. In the test with Bacillus thuringiensis, the “bound to Bacillus anthracis fold better than to Bacillus thuringiensis” value came out at 6.9 fold. For the same sequence, the “bound to Bacillus anthracis fold better than to Bacillus cereus” value in the test on Bacillus cereus turned out to be 3.5 fold. Moreover, the “bound to Bacillus anthracis fold better than to Bacillus megaterium” value in the test with Bacillus megaterium turned out to be 43 fold.

Turning to EPRAPASL, the “binding in the phage-capture assay (percentage recovery, eluted to input phage)” value in test [3] is recorded as “high binding”.

For the sequence DRTGATLT, in test [3], the “binding in the phage-capture assay (percentage recovery, eluted to input phage)” value was “high binding”.
